Test results: US9102638B2, “Amidobenzothiazoles and process for the preparation thereof” (COUNCIL OF SCIENTIFIC & INDUSTRIAL RESEARCH, priority 2011, dated 2015)

What was measured:
Type in all cases: cell-based
[1] = test system: prostate cancer cell lines; test: In vitro activity against prostate cancer cell lines (panel range); details: Homo sapiens, read-out: GI50 values, range over the listed compounds and the panel
Experimental: (§1) The in vitro anticancer activity studies for these amidobenzothiazoles were carried out at the National Cancer Institute, Maryland, USA.
(§2) The amidobenzothiazoles have been tested against sixty human tumor cell lines derived from nine cancer types (leukemia cancer cell line, non-small cell lung cancer cell line, colon cancer cell line, CNS cancer cell line, melanoma cancer cell line, ovarian cancer cell line, renal cancer cell line, prostate cancer cell line and breast cancer cell lines). For these compounds results are expressed in GI50 values of that particular cancer cell at micro molar (μM) concentration as per NCI protocol.

[2] = test system: leukemia cancer cell lines; test: In vitro activity against leukemia cancer cell lines (panel range); details: Homo sapiens, read-out: GI50 values, range over the listed compounds and the panel
Experimental: as §1, §2

A549/ATCC = test: In vitro cytotoxicity, NCI screen: A549/ATCC (Non-small cell lung); details: Homo sapiens, Non-small cell lung panel, NCI protocol, read-out: GI50 values (μM conc.)
Experimental: as §1, §2

SNB-19 = test: In vitro cytotoxicity, NCI screen: SNB-19 (CNS); details: Homo sapiens; SNB-19, CNS panel, NCI protocol; read-out: GI50 values (μM conc.)
Experimental: as §1, §2

MCF7 = test: In vitro cytotoxicity, NCI screen: MCF7 (Breast); details: Homo sapiens; MCF7, Breast panel, NCI protocol; read-out: GI50 values (μM conc.)
Experimental: as §1, §2

HOP-62 = test: In vitro cytotoxicity, NCI screen: HOP-62 (Non-small cell lung); details: Homo sapiens; HOP-62, Non-small cell lung panel, NCI protocol; read-out: GI50 values (μM conc.)
Experimental: as §1, §2

NCI-H522 = test: In vitro cytotoxicity, NCI screen: NCI-H522 (Non-small cell lung); details: Homo sapiens; NCI-H522, Non-small cell lung panel, NCI protocol; read-out: GI50 values (μM conc.)
Experimental: as §1, §2

A498 = test: In vitro cytotoxicity, NCI screen: A498 (Renal); details: Homo sapiens; A498, Renal panel, NCI protocol; read-out: GI50 values (μM conc.)
Experimental: as §1, §2

HCT-116 = test: In vitro cytotoxicity, NCI screen: HCT-116 (Colon); details: Homo sapiens, read-out: GI50 values (μM conc.)
Experimental: as §1, §2

SF-295 = test: In vitro cytotoxicity, NCI screen: SF-295 (CNS); details: Homo sapiens; SF-295, CNS panel, NCI protocol; read-out: GI50 values (μM conc.)
Experimental: as §1, §2

IGROV1 = test: In vitro cytotoxicity, NCI screen: IGROV1 (Ovarian); details: Homo sapiens, IGROV-1; IGROV1, Ovarian panel, NCI protocol; read-out: GI50 values (μM conc.)
Experimental: as §1, §2

ACHN = test: In vitro cytotoxicity, NCI screen: ACHN (Renal); details: Homo sapiens, Renal panel, NCI protocol, read-out: GI50 values (μM conc.)
Experimental: as §1, §2

LOX IMVI = test: In vitro cytotoxicity, NCI screen: LOX IMVI (Melanoma); details: Homo sapiens, Melanoma panel, NCI protocol, read-out: GI50 values (μM conc.)
Experimental: as §1, §2

MDA-MB-435 = test: In vitro cytotoxicity, NCI screen: MDA-MB-435 (Melanoma); details: Homo sapiens; MDA-MB-435, Melanoma panel, NCI protocol; read-out: GI50 values (μM conc.)
Experimental: as §1, §2

MDA-MB-468 = test: In vitro cytotoxicity, NCI screen: MDA-MB-468 (Breast); details: Homo sapiens, read-out: GI50 values (μM conc.)
Experimental: as §1, §2

HS 578T = test: In vitro cytotoxicity, NCI screen: HS 578T (Breast); details: Homo sapiens, read-out: GI50 values (μM conc.)
Experimental: as §1, §2

OVCAR-4 = test: In vitro cytotoxicity, NCI screen: OVCAR-4 (Ovarian); details: Homo sapiens; OVCAR-4, Ovarian panel, NCI protocol; read-out: GI50 values (μM conc.)
Experimental: as §1, §2

MALME-3M = test: In vitro cytotoxicity, NCI screen: MALME-3M (Melanoma); details: Homo sapiens, Melanoma panel, NCI protocol, read-out: GI50 values (μM conc.)
Experimental: as §1, §2

NCI-H23 = test: In vitro cytotoxicity, NCI screen: NCI-H23 (Non-small cell lung); details: Homo sapiens; NCI-H23, Non-small cell lung panel, NCI protocol; read-out: GI50 values (μM conc.)
Experimental: as §1, §2

DU-145 = test: In vitro cytotoxicity, NCI screen: DU-145 (Prostate); details: Homo sapiens, read-out: GI50 values (μM conc.)
Experimental: as §1, §2

SN12C = test: In vitro cytotoxicity, NCI screen: SN12C (Renal); details: Homo sapiens, Renal panel, NCI protocol, read-out: GI50 values (μM conc.)
Experimental: as §1, §2

OVCAR-8 = test: In vitro cytotoxicity, NCI screen: OVCAR-8 (Ovarian); details: Homo sapiens; OVCAR-8, Ovarian panel, NCI protocol; read-out: GI50 values (μM conc.)
Experimental: as §1, §2

BT-549 = test: In vitro cytotoxicity, NCI screen: BT-549 (Breast); details: Homo sapiens, read-out: GI50 values (μM conc.)
Experimental: as §1, §2

MDA-MB-231/ATCC = test: In vitro cytotoxicity, NCI screen: MDA-MB-231/ATCC (Breast); details: Homo sapiens, Breast panel, NCI protocol, read-out: GI50 values (μM conc.)
Experimental: as §1, §2

HCT-15 = test: In vitro cytotoxicity, NCI screen: HCT-15 (Colon); details: Homo sapiens; HCT-15, Colon panel, NCI protocol; read-out: GI50 values (μM conc.)
Experimental: as §1, §2

HCC-2998 = test: In vitro cytotoxicity, NCI screen: HCC-2998 (Colon); details: Homo sapiens; HCC-2998, Colon panel, NCI protocol; read-out: GI50 values (μM conc.)
Experimental: as §1, §2

MOLT-4 = test: In vitro cytotoxicity, NCI screen: MOLT-4 (Leukemia); details: Homo sapiens; MOLT-4, Leukemia panel, NCI protocol; read-out: GI50 values (μM conc.)
Experimental: as §1, §2

CCRF-CEM = test: In vitro cytotoxicity, NCI sixty cell line screen: CCRF-CEM (Leukemia); details: Homo sapiens, Leukemia panel, NCI protocol, read-out: GI50 values (μM conc.)
Experimental: as §1, §2

SR = test: In vitro cytotoxicity, NCI screen: SR (Leukemia); details: Homo sapiens, Leukemia panel, NCI protocol, read-out: GI50 values (μM conc.)
Experimental: as §1, §2

SK-MEL-2 = test: In vitro cytotoxicity, NCI screen: SK-MEL-2 (Melanoma); details: Homo sapiens; SK-MEL-2, Melanoma panel, NCI protocol; read-out: GI50 values (μM conc.)
Experimental: as §1, §2

NCI-H460 = test: In vitro cytotoxicity, NCI screen: NCI-H460 (Non-small cell lung); details: Homo sapiens; NCI-H460, Non-small cell lung panel, NCI protocol; read-out: GI50 values (μM conc.)
Experimental: as §1, §2

UACC-62 = test: In vitro cytotoxicity, NCI screen: UACC-62 (Melanoma); details: Homo sapiens; UACC-62, Melanoma panel, NCI protocol; read-out: GI50 values (μM conc.)
Experimental: as §1, §2

M14 = test: In vitro cytotoxicity, NCI screen: M14 (Melanoma); details: Homo sapiens; M14, Melanoma panel, NCI protocol; read-out: GI50 values (μM conc.)
Experimental: as §1, §2

KM12 = test: In vitro cytotoxicity, NCI screen: KM12 (Colon); details: Homo sapiens; KM12, Colon panel, NCI protocol; read-out: GI50 values (μM conc.)
Experimental: as §1, §2

Structure (SMILES)	GI50 [1] [µM]	GI50 [2] [µM]	GI50 (A549/ATCC) [µM]	GI50 (SNB-19) [µM]	GI50 (MCF7) [µM]	GI50 (HOP-62) [µM]	GI50 (NCI-H522) [µM]	GI50 (A498) [µM]	GI50 (HCT-116) [µM]	GI50 (SF-295) [µM]	GI50 (IGROV1) [µM]	GI50 (ACHN) [µM]	GI50 (LOX IMVI) [µM]	GI50 (MDA-MB-435) [µM]	GI50 (MDA-MB-468) [µM]	GI50 (HS 578T) [µM]	GI50 (OVCAR-4) [µM]	GI50 (NCI-H23) [µM]	GI50 (DU-145) [µM]	GI50 (SN12C) [µM]	also measured
COc1ccc(C2CC(c3cc(OC)c(OC)c(OC)c3)=NN2C(C)=O)cc1OCC(=O)Nc1nc2ccc(C(F)(F)F)cc2s1 (centres unmarked) [Compound 10i, N1-(6-(trifluoromethyl)-1,3-benzothiazol-2-yl)-2-{5-[1-acetyl-3-(3,4,5-trimethoxyphenyl)-4,5-dihydro-1H-5-pyrazolyl]-2-methoxyphenoxy}acetamide]	0.18 to 22.9	0.037 to 29.9	2.16	11	4.02	2.2	2.71	2.78	2.39	3.06	5.3	2.48	3.36	3.08	6.12	2.48	2.9	3.76	1.82	3.31	GI50 (MALME-3M): 6.44 µM; GI50 (OVCAR-8): 3.36 µM; GI50 (BT-549): 3.55 µM; GI50 (MDA-MB-231/ATCC): 3.11 µM; GI50 (HCT-15): 9.26 µM; GI50 (HCC-2998): > 100 µM
COc1ccc(/C=C\c2cc(OC)c(OC)c(OC)c2)cc1OCC(=O)Nc1nc2ccc(OC(F)(F)F)cc2s1 [Compound 8j, N1-(6-(trifluoromethoxy)-1,3-benzothiazol-2-yl)-2-{2-methoxy-5-[(Z)-2-(3,4,5-trimethoxyphenyl)-1-ethenyl]phenoxy}acetamide]	0.18 to 22.9	0.037 to 29.9	6	7.08	2.89	7.09	3.16	3.61	3.92	3.7	5.64	8.31	4.77	1.93	2.3	4.33	5.34	4.39	4.11	6.42	GI50 (MOLT-4): 4.21 µM; GI50 (CCRF-CEM): 4.12 µM; GI50 (SR): 3.55 µM; GI50 (OVCAR-8): 5 µM; GI50 (SK-MEL-2): 3.29 µM; GI50 (BT-549): 10.5 µM; GI50 (MDA-MB-231/ATCC): 5.16 µM; GI50 (NCI-H460): 4.11 µM; GI50 (UACC-62): 5.11 µM; GI50 (HCT-15): 3.23 µM; GI50 (M14): 4.36 µM; GI50 (KM12): 4.48 µM; GI50 (HCC-2998): 17.1 µM
